Assay results: patent US4221793A, “N,N'-Disubstituted piperazine derivative” (priority 1977, dated 1980)
Converted amounts (≈) assume the structure as drawn. Read-outs that look alike come from different tables or passages of the source.

How the values were obtained:
mice [1] = assay: Tetrabenazine catalepsy test on mice, influence on the duration of catalepsy; type: in vivo, mouse; details: for Effect in tetrabenazine catalepsy test compared with imipramine: in words
Experimental: (§1) The pharmacological activity of the substance according to the invention was investigated in the tetrabenazine catalepsy test and in the reserpine antagonism test at the mouse.
Mice in groups of 10 animals each were given 15 mg/kg of tetrabenazine i.p. 30 minutes after administration of the test substance. The onset of a cataleptic condition is assessed on a 2-step round cork on to which the animals are placed so that they touch the bottom step with their head and forepaws and the upper step with their hind paws. Such a position is corrected immediately by a normal animal. For assessment, the reaction of the animals is observed every 60 seconds. The inhibition of catatonia is calculated in percentage values in relation to a control group.

mice [2] = assay: Reserpine antagonism test on mice; type: in vivo, mouse; details: in words
Excerpt: as §1

[3] = tested on: isolated guinea-pig heart; assay: Activity on the isolated guinea-pig heart (Langendorff): coronary circulation and contraction level; details: for Effect on coronary vessels / circulation / Influence on contraction level of the isolated heart: in words
[4] = tested on: isolated guinea-pig intestines; assay: Spasmolytic activity on isolated guinea-pig intestines (Magnus); details: for IC50: Cavia porcellus
Experimental: The compound according to the invention has also been examined for its influenece on coronary circulation and on the heart mechanogram in isolated guinea-pig hearts according to the method of Langendorff (Langendorff, O., Pfluegers Arch. 61 (1895), 219) as well as for its spasmolytic activity on isolated guinea-pig intestines according to the method of Magnus (Magnus, R., Pflugers Arch. 102 (1904), 123). In this latter case, the spasmolytic activity was determined in relation to 0.2 μg/ml of histamine and 100 μg/ml of barium chloride.

mice [5] = details: mouse, in vivo, po
[6] = Acute toxicity test on mice (LD50); details: mouse, in vivo
mice [7] = assay: Acute toxicity test on mice (LD50); details: in words
[8] = Side-effect activities (cardiotoxic, central nervous system, sedation, vegetative nervous system); details: therapeutically relevant doses
[9] = against 0.2 μg/ml histamine, read-out: Spasmolytic activity as ED50 relative to histamine
[10] = against 100 μg/ml barium chloride, read-out: Spasmolytic activity as ED50 relative to BaCl2

With `COc1ccc2oc(C(=O)N3CCN(Cc4ccccc4)CC3)cc2c1` [According to the invention, N-(5-Methoxybenzofuran-2-ylcarbonyl)-N'-benzylpiperazine] the “Change of duration of catalepsy relative to control” value (mice [1]; 20 mg/kg p.o., 20 min post appl., n=40) was -62 ± 26%, the “Effect in tetrabenazine catalepsy test compared with imipramine” value (mice [1]) was “substantially stronger effect than the comparison substance” and the “Effect in tetrabenazine catalepsy test compared with imipramine” value (mice [1]; listed as substance according to the invention) was “substantially stronger effect than the commercially available comparison substance, imipramine”. For the same compound, the “Activity in reserpine antagonism test compared with comparison substance” value (mice [2]) was “substantially equal in activity compared with the comparison substance”, the activation at 0.05 mg ([3]; Cavia porcellus, dose 50 μg, read-out: Change in coronary circulation) was 39% and the inhibition at 0.05 mg ([3]; Cavia porcellus, dose 50 μg, read-out: Influence on contraction level) was 0%. For the same compound, the “Effect on coronary vessels / circulation” value [3] was “causes a dilation of the coronary vessels”, the “Influence on contraction level of the isolated heart” value [3] was “does not influence the contraction level of the isolated heart” and the IC50 [4, 9] was 5 to 10 µg/mL (≈ 14.3 to 28.5 µM). For the same compound, the IC50 [4, 10] was 5 to 10 µg/mL (≈ 14.3 to 28.5 µM), the Spasmolytic activity ([4]; in words) was “only small” and the “Influence on the peripheral vegetative nervous system” value ([4]; in words, concluded from spasmolytic activity) was “influenced only slightly, if at all”. The “Compatibility (tolerability) compared with comparison preparation” value (mice [5]) was “more than ten times more compatible than the comparison preparation”, the LD50 ([6]; ip) was 548 mg/kg and the LD50 ([6]; po) was > 4000 mg/kg. For the same compound, the “Toxicity compared with imipramine” value (mice [7]) was “considerably lower toxicity”, the Cardiotoxic activity [8] was “has not shown in therapeutically relevant doses any cardiotoxic” and the “Central nervous system stimulation activity” value [8] was “has not shown”. For the same compound, the “Influence on the vegetative nervous system” value [8] was “has not shown” and the Sedation activity [8] was “has not shown”.
`CN(C)CCCN1c2ccccc2CCc2ccccc21` [Imipramine] showed an activation at 0.01 mg ([3]; Cavia porcellus, dose 10 μg, first value of pair, read-out: Change in coronary circulation (initial brief increase)) of 19%, an inhibition at 0.01 mg ([3]; Cavia porcellus, dose 10 μg, read-out: Influence on contraction level) of 25% and an inhibition at 0.01 mg ([3]; Cavia porcellus, dose 10 μg, second value of pair, read-out: Change in coronary circulation (subsequent constriction)) of 18%. It also gave an activation at 0.02 mg ([3]; Cavia porcellus, dose 20 μg, first value of pair, read-out: Change in coronary circulation (initial brief increase)) of 28%, an inhibition at 0.02 mg ([3]; Cavia porcellus, dose 20 μg, read-out: Influence on contraction level) of 25% and an inhibition at 0.02 mg ([3]; Cavia porcellus, dose 20 μg, second value of pair, read-out: Change in coronary circulation (subsequent constriction)) of 29%. For the same compound, the activation at 0.03 mg ([3]; Cavia porcellus, dose 30 μg, first value of pair, read-out: Change in coronary circulation (initial brief increase)) was 84%, the inhibition at 0.03 mg ([3]; Cavia porcellus, dose 30 μg, read-out: Influence on contraction level) was 50% and the inhibition at 0.03 mg ([3]; Cavia porcellus, dose 30 μg, second value of pair, read-out: Change in coronary circulation (subsequent constriction)) was 22%. The “Effect on coronary vessels / circulation” value [3] was “causes initially a brief increase in circulation, this then changes to a constriction”, the “Influence on contraction level of the isolated heart” value [3] was “heart damage which is shown by the reduction of the heart contraction” and the IC50 [4, 9] was 0.001 µg/mL (≈ 0.00357 µM). For the same compound, the IC50 [4, 10] was 0.1 to 1 µg/mL (≈ 0.357 to 3.57 µM).
